Here are results for 11 molecules from ChEMBL document CHEMBL1138958, “Opioid receptor binding and antinociceptive activity of the analogues of endomorphin-2 and morphiceptin with phenylalanine mimics in the position 3 or 4” (Bioorg Med Chem Lett, 2006).

For orientation: Ki means the equilibrium dissociation constant of an inhibitor or competing ligand from its target. In general, half-life refers to how long it takes for the measured level to halve.

Structures are written as SMILES. Where a SMILES comes first, the peptide text is derived from it. [ ]: non-standard residue; d: D form. hPhe = N[C@@H](CCc1ccccc1)C(=O)O Some results are limits rather than exact numbers.

For data set [1], the target named is Mu-type opioid receptor (Rattus norvegicus) (UniProt P33535). The experiment in a line: Decrease of maximum binding of [3H]DAMGO to mu opioid receptor in Wistar rat brain at 10000 nm. More on the design: scale not given: the % may be the effect or the level left.
Chain of Mu-type opioid receptor (Rattus norvegicus) (P33535 whole entry): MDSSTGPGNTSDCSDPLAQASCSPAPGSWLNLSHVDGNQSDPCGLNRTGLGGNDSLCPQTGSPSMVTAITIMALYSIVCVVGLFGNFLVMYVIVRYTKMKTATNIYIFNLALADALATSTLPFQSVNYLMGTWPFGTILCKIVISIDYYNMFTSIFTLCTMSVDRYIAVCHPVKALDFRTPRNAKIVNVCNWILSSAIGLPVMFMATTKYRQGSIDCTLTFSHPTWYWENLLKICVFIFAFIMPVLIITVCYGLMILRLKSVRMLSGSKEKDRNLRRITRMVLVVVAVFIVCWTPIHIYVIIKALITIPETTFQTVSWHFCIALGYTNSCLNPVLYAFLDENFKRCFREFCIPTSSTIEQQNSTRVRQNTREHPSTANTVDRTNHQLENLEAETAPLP
The target in data set [2] is Delta-type opioid receptor (Rattus norvegicus, UniProt P33533). The experiment in a line: Displacement of [3H]DPDPE from delta opioid receptor in Wistar rat brain. (Displacement assays read how much labelled ligand stays bound in the presence of the test substance.)
Chain of Delta-type opioid receptor (P33533 whole entry): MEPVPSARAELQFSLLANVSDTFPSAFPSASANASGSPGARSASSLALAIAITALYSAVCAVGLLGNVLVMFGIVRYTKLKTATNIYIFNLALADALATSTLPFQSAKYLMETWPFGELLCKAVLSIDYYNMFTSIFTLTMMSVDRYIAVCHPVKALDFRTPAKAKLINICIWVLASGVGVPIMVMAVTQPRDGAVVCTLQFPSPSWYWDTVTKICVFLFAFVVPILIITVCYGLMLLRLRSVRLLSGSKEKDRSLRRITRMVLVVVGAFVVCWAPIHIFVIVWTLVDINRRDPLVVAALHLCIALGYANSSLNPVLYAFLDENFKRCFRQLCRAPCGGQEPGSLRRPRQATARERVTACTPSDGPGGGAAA
A further data set deals with Mu-type opioid receptor (Rattus norvegicus, UniProt P33535). The experiment in a line: Displacement of [3H]DAMGO from mu opioid receptor in Wistar rat brain.
Chain of Mu-type opioid receptor (P33535 whole entry): as the sequence (P33535 whole entry) above
For data set [3], the system named is Mus musculus. The experiment in a line: Antinociceptive activity in mouse at 4 ul, icv by hot plate test assessed as area under %MPE - time curve after 15 mins. It is filed as functional. (In general: Thermal pain tests record how soon the animal reacts.)
Data set [4] relates to Mus musculus. The experiment in a line: Antinociceptive activity in mouse at 4ul, icv by hot plate test assessed as area under %MPE - time curve after 30 mins. The format is functional.
Data set [5] has as its system Mus musculus. The experiment in a line: Antinociceptive activity in mouse at 4ul, icv by hot plate test assessed as area under %MPE - time curve after 45 mins. The format is functional.
Data set [6] can be described thus: Half life in mouse brain at 10 ul. It is filed as ADME, organism-based.

As to `NC(=O)[C@@H]1CCCN1C(=O)[C@H](NC(=O)[C@@H]1CCCN1C(=O)[C@@H](N)Cc1ccc(O)cc1)c1ccccc1`, the Activity in data set [1] came to 24.5%. Besides, the Ki in data set [2] is greater than 10000 nM.
As to `NC(=O)[C@@H]1CCCN1C(=O)[C@H](CCc1ccccc1)NC(=O)[C@@H]1CCCN1C(=O)[C@@H](N)Cc1ccc(O)cc1` (H-YP[hPhe]P-NH2), the Ki was 586 nM at Mu-type opioid receptor and greater than 10000 nM in data set [2].
Molecule `NC(=O)[C@@H]1CCCN1C(=O)[C@@H](NC(=O)[C@@H]1CCCN1C(=O)[C@@H](N)Cc1ccc(O)cc1)c1ccccc1` registered a Ki in data set [2] greater than 10000 nM.
On to `NC(=O)[C@H](Cc1ccccc1)NC(=O)[C@H](NC(=O)[C@@H]1CCCN1C(=O)[C@@H](N)Cc1ccc(O)cc1)c1ccccc1`, for which the results for the Ki (on Mu-type opioid receptor; in data set [2]) were 1350 nM and 2100 nM, respectively.
`NC(=O)[C@@H](NC(=O)[C@H](Cc1ccccc1)NC(=O)[C@@H]1CCCN1C(=O)[C@@H](N)Cc1ccc(O)cc1)c1ccccc1`: the Activity amounted to 54.2% with Mus musculus [3], 42.2% with Mus musculus [4] and 35.5% in the data set with Mus musculus [5]. Also, the values for the inhibition constant (Ki) (at Mu-type opioid receptor; in data set [2]) were 26.9 nM and greater than 10000 nM, respectively. Besides, the half-life in data set [6] amounted to 24.1 min.
Take `NC(=O)[C@H](Cc1ccccc1)NC(=O)[C@@H](NC(=O)[C@@H]1CCCN1C(=O)[C@@H](N)Cc1ccc(O)cc1)c1ccccc1`: the results for the Ki (on Mu-type opioid receptor; in data set [2]) were 268 nM and greater than 10000 nM, respectively.
For `NC(=O)[C@@H]1CCCN1C(=O)[C@H](Cc1ccccc1)NC(=O)[C@@H]1CCCN1C(=O)[C@@H](N)Cc1ccc(O)cc1` [MORPHICEPTIN] (H-YPFP-NH2), the Ki is 135 nM at Mu-type opioid receptor and greater than 10000 nM in data set [2].
As for `NC(=O)[C@H](Cc1ccccc1)NC(=O)[C@H](Cc1ccccc1)NC(=O)[C@@H]1CCCN1C(=O)[C@@H](N)Cc1ccc(O)cc1` [ENDOMORPHIN 2], the figures for the Activity in the data set on Mus musculus [3] and in the data set with Mus musculus [4] were 40.1% and 34.8%, respectively. The molecule further registered a half-life in data set [6] of 19.7 min.
Regarding `NC(=O)[C@H](NC(=O)[C@H](Cc1ccccc1)NC(=O)[C@@H]1CCCN1C(=O)[C@@H](N)Cc1ccc(O)cc1)c1ccccc1`, the values for the inhibition constant Ki (on Mu-type opioid receptor; in data set [2]) were 216 nM and greater than 10000 nM, respectively.
For the molecule `NC(=O)[C@H](Cc1ccccc1)NC(=O)[C@H](CCc1ccccc1)NC(=O)[C@@H]1CCCN1C(=O)[C@@H](N)Cc1ccc(O)cc1`, the Activity with Mus musculus [3] is 67.5%; in the data set with Mus musculus [4], 50%; with Mus musculus [5], 38.2%. Further, the values for the Ki (at Mu-type opioid receptor; in data set [2]) were 28.4 nM and greater than 10000 nM, respectively. In data set [6], this molecule registered a half-life of 32.5 min.
Consider `NC(=O)[C@H](CCc1ccccc1)NC(=O)[C@H](Cc1ccccc1)NC(=O)[C@@H]1CCCN1C(=O)[C@@H](N)Cc1ccc(O)cc1`, for which the Ki on Mu-type opioid receptor was 74.5 nM; in data set [2], greater than 10000 nM.
